Test results published in patent US9598405B2, “Thiazole-substituted aminopyridines as spleen tyrosine kinase inhibitors” (Merck Sharp & Dohme Corp., priority 2012, dated 2017).

Experiments:
[1] = target: recombinant human GST-SYK (Homo sapiens (Human), UniProt P43405); experiment: Homogeneous Time-Resolved Fluorescence (HTRF) assay for the recombinant human Syk enzyme; format: biochemical
Experimental: Homogeneous Time-Resolved Fluorescence (HTRF) Assay for the Recombinant Human Syk Enzyme
A recombinant GST-hSYK fusion protein was used to measure potency of compounds to inhibit human Syk activity. […] Final volume of the reaction was 10 μL. […] To quench the reaction and detect the phosphorylated product, 2 nM of a Europium-anti-phosphotyrosine antibody (Perkin Elmer #AD0161) and 70 nM SA-APC (Perkin-Elmer #CR130-100) were added together in 15 mM Tris pH 7.5, 40 mM EDTA, 0.01% tween 20. Final volume of the quenching solution was […]. The resulting HTRF signal was measured after 30 minutes on an EnVision (Perkin-Elmer) reader using a time-resolved fluorescence protocol.

PGD2 = details: dosed intranasally, phase I/II study, allergic rhinitis; cited from earlier work
[2] = phase II clinical trial, allergic rhinitis; cited from earlier work

Row | IC50 [1] [nM] | SMILES | change in PGD2 (PGD2) | clinical safety (PGD2) | efficacy versus placebo [2]
1 | 1170 | COCc1cc(Nc2cc(C(F)(F)F)ccn2)nc(-c2cnc([C@]3(O)CC[C@@H](C(=O)OC)C(C)(C)C3)s2)c1 (single isomer, unassigned) [Example 4.8, methyl (1R,4S or 1S,4R)-4-hydroxy-4-{5-[4-(methoxymethyl)-6-{[4-(trifluoromethyl)pyridin-2-yl]amino}pyridin-2-yl]-1,3-thiazol-2-yl}-2,2-dimethylcyclohexanecarboxylate] |  |  | 
2 |  | Oc1cccc(Nc2ncc(F)c(Nc3cccc(O)c3)n2)c1 [Example R112] | statistically significant decrease | safe across a range of indicators | lack of efficacy
